The subject of assay [1] is pS6, IGF-IRβ in ctrl-sh neurons. The assay is described as follows: Western blot of pS6 and IGF-IRβ in ctrl-sh neurons. The format is cell-based, rat. Particulars: dose curve. A general note: In western blotting, separated proteins are transferred to a membrane and probed.
The test system of assay [2] is IGF-IRβ, pS6 in wild-type cortical neurons. Put plainly: Proteasomal inhibition experiment, Western blot in wild-type cortical neurons. Particulars: 4 μM 17-AGG alone, 24 hrs at DIV20. In kind it is cell-based, rat.
Assay [3] relates to Hsp90 (panel of human cancer cell lines). The settings on record: read-out: mean IC50 against Hsp90, Kelland et al. 1999; cited from earlier work.
For assay [4], the system named is ciliated neurons in CA1 of the hippocampus of Tsc2 mutant mice. The assay is described as follows: Ciliated neurons in brain of Tsc2 mutant mice (immunohistochemistry, manual cilia counting). The settings on record: rapamycin 3 mg/kg i.p. every other day P7 until P56. The format is in vivo, mouse. The source says:
Neuronal cilia in TSC mouse models was examined with either a conditional deletion of TSC1 or TSC2 driven by the Synapsin-1 promoter, which results in loss of TSC1/2 proteins in post-mitotic neurons of the cortex and of the hippocampus. The TSC1/SynCre mice (Tsc1 mutant) have a shorter life span (median age postnatal day 35, P35), and they recapitulate many of the neurological manifestations of TSC, including seizures and presence of ectopic giant cells (Meikle et al., A mouse model of tuberous sclerosis: neuronal loss of Tsc1 causes dysplastic and ectopic neurons, reduced myelination, seizure activity, and limited survival; J Neurosci 27, 5546-5558 (2007)). […]
For histological analysis, animals were anesthetized (1 ml of 2.5% Avertin) and perfused transcardially with 4% PFA. […] Finally, the average percentage of neurons with cilia (NeuN^+/ACIII^+) was calculated in each of the images. […] The average percentage of SMI311^+ or SMI311^− with cilia was calculated. […] A threshold for cilia count was set such that only ACIII positive objects that measured longer than 1 μm were counted as cilia. All the imaging and the quantification were done in a blinded way. […] All quantifications were performed in a blinded fashion.

What is called IC50 is the concentration at which inhibition is half-maximal. Regarding `C=CCNC1=C2C[C@@H](C)C[C@H](OC)[C@H](O)[C@@H](C)/C=C(\C)[C@H](OC(N)=O)[C@@H](OC)C=C/C=C(\C)C(=O)NC(=CC1=O)C2=O` [17-AGG, 3 S,5S,6R,7S,8E,10R,11S,12E,14E)-21-(allylamino)-6-hydroxy-5,11-dimethoxy-3,7,9,15-tetramethyl-16,20,22-trioxo-17-azabicyclo[16.3.1]docosa-8,12,14,18,21-pentaen-10-yl] carbamate], in assay [1], the IGF-IRβ levels result is “reduced” and the S6 phosphorylation entry is listed as “reduced”. In assay [2], the IGF-IRβ levels result is “reduced”. The IC50 in assay [3] is […].

`CO[C@H]1C[C@@H]2CC[C@@H](C)[C@@](O)(O2)C(=O)C(=O)N2CCCC[C@H]2C(=O)O[C@H]([C@H](C)C[C@@H]2CC[C@@H](O)[C@H](OC)C2)CC(=O)[C@H](C)/C=C(\C)[C@@H](O)[C@@H](OC)C(=O)[C@H](C)C[C@H](C)/C=C/C=C/C=C/1C` [rapamycin]: the ciliation defects result in assay [4] was “prevented”.
